Laboratory results taken from patent publication US8946216B2, “Indazole derivatives useful as ERK inhibitors” (Merck Sharp & Dohme Corp., priority 2010, dated 2015).

Tests used:
[1] = target: unphosphorylated Mouse ERK2 protein (inactive ERK2) (Mus musculus, UniProt P63085); assay: Coupled ERK2 (cERK) assay, coupled MEK1/ERK2 IMAP; type: biochemical; conditions: 30 min preincubation with inactive ERK2, then activation by human MEK1; 30 μM ATP; fluorescence polarization; read-out: cERK2 IC50
Procedure, shortened: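 Compound was preincubated with 0.4 ng unphosphorylated mouse ERK2 in Tris pH 7.2/MgCl2/DTT buffer (6.7% DMSO). ERK2 was then activated for 1 h by 2 ng active human MEK1 with 4 μM IMAP substrate peptide (100 nM fluorescein-labelled) and 30 μM ATP (final, 4% DMSO). Phosphorylation was read by IMAP bead fluorescence polarization after 30 min binding.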

[2] = target: fully phosphorylated, active Mouse ERK2 protein (Mus musculus, UniProt P63085); assay: Active ERK2 (aERK) assay, IMAP format; type: biochemical; conditions: 30 min preincubation; 1 μM substrate peptide, 30 μM ATP; fluorescence polarization; read-out: aERK2 IC50
Sequence of fully phosphorylated, active Mouse ERK2 protein (P63085 whole entry): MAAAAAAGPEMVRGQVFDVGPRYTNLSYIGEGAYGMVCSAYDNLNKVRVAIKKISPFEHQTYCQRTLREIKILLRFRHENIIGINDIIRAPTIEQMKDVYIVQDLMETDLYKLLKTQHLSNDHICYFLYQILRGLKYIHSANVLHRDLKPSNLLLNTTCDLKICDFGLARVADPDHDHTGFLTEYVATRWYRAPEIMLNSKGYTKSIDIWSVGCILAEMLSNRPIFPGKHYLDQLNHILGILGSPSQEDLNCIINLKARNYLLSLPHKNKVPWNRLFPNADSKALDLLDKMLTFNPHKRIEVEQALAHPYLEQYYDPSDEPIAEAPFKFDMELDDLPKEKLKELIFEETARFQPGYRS
Protocol: Active ERK2 (aERK) Assay:
Activated ERK2 activity was also determined in the IMAP assay format using the procedure outlined above. 1 μl of 25× compound was added to 14 μl of kinase buffer containing 0.25 ng fully phosphorylated, active Mouse ERK2 protein. Following a 30 minute incubation, the reactions were initiated by addition of 10 μl of kinase buffer containing 1 μM ERK2 IMAP substrate peptide (0.9 μM unlabeled IPTTPITTTYFFFK--CONH2 and 100 nM IPTTPITTTYFFFK(5-carboxyfluorescein)-CONH2) and 30 μM ATP. Reactions proceeded for 30 minutes before termination by addition of 60 μl IMAP detection beads in binding buffer. Plates were read as above after 30 minute binding equilibration. Active compounds were reconfirmed in an independent assay.

ERK protein = ERK protein (Homo sapiens, UniProt P28482); assay: TdF (Temperature Dependence Fluorescence, thermal shift) assay for ERK; type: binding; conditions: read-out: TdF Kd; 3 μM ERK protein, 15, 50 or 100 μM compound, Sypro Orange; Kd calculated from ΔTm; uncertainty estimated ±50%
Sequence of ERK protein (P28482 2-360): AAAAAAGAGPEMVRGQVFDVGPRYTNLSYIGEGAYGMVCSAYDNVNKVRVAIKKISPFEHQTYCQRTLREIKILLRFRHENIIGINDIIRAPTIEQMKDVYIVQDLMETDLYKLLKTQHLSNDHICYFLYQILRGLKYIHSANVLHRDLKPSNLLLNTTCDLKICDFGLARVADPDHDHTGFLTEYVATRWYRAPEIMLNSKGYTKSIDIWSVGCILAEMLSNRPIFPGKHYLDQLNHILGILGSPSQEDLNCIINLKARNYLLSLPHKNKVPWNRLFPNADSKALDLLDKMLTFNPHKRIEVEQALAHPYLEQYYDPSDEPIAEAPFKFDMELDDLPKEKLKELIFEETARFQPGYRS
Procedure, shortened: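 Thermal shift with Sypro Orange: samples containing 3 μM in 2% final DMSO heated 30 to 90 °C at 1 °C/min, fluorescence at ex 490/em 560 nm. Kd derived from ΔTm versus protein alone by the Brandts–Lin model, with ΔCpL set to 0 and ΔHL to −7 kcal/mol; uncertainty ±50%.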

Sequence of unphosphorylated Mouse ERK2 protein (inactive ERK2) (P63085 whole entry): as the sequence (P63085 whole entry) above

Compound | IC50 [1] [nM] | IC50 [2] [nM] | Kd (ERK protein) [nM]
O=C(Nc1ccc2[nH]nc(-c3ccncc3)c2c1)[C@H]1CN(Cc2ccccc2)CCN1 [Compound 59, 4-(PHENYLMETHYL)-N-[3-(4-PYRIDINYL)-1H-INDAZOL-5-YL]-2(R)-PIPERAZINECARBOXAMIDE] | 21.6 | 16.3 | 21
O=C(Nc1ccc2[nH]nc(-c3ccncc3)c2c1)[C@@H]1CN(Cc2ccccc2)CCN1 [Compound 57, 4-(PHENYLMETHYL)-N-[3-(4-PYRIDINYL)-1H-INDAZOL-5-YL]-2(S)-PIPERAZINECARBOXAMIDE] | 61.8 | 52 | 49
Cc1nc(CN2CCOC(C(=O)Nc3ccc4[nH]nc(-c5ccncc5)c4c3)C2)cs1 (stereo not drawn) [Compound 18, 4-[(2-METHYL-4-THIAZOLYL)METHYL]-N-[3-(4-PYRIDINYL)-1H-INDAZOL-5-YL]-2-MORPHOLINECARBOXAMIDE] | 1170 | 18100 | 571
O=C(Nc1ccc2[nH]nc(-c3ccncc3)c2c1)C1CNCCS1 (stereo not drawn) [Compound 17, N-[3-(4-PYRIDINYL)-1H-INDAZOL-5-YL]-2-THIOMORPHOLINECARBOXAMIDE] | 109 | 124 | 5630
O=C(Nc1ccc2[nH]nc(-c3ccncc3)c2c1)C1(CO)CCCN(Cc2ccccc2)C1 (stereo not drawn) [Compound 66, 3-(HYDROXYMETHYL)-1-(PHENYLMETHYL)-N-[3-(4-PYRIDINYL)-1H-INDAZOL-5-YL]-3-PIPERIDINECARBOXAMIDE] | 1000 | 439 | 104
O=C(Nc1ccc2[nH]nc(-c3ccncc3)c2c1)C1CN(Cc2ccccc2F)CC[S+]1[O-] (stereo not drawn) [Compound 69, 4-[(2-FLUOROPHENYL)METHYL]-N-[3-(4-PYRIDINYL)-1H-INDAZOL-5-YL]-2-THIOMORPHOLINECARBOXAMIDE, 1-OXIDE] | 8.3 | 2.7 | 4.4
O=C(Nc1ccc2[nH]nc(-c3ccncc3)c2c1)C1CNCCC1c1ccccc1 (stereo not drawn) [Compound 53, 4-PHENYL-N-[3-(4-PYRIDINYL)-1H-INDAZOL-5-YL]-3-PIPERIDINECARBOXAMIDE] | 69.5 | 102 | 70

The next lines start with the values.

IC50 [1] [nM] | IC50 [2] [nM] | Kd (ERK protein) [nM] | Compound
19.9 | 8.1 | 5 | O=C(Nc1ccc2[nH]nc(-c3ccncc3)c2c1)[C@H]1CN(Cc2ccccc2F)CCS1 [Compound 61, 4-[(2-FLUOROPHENYL)METHYL]-N-[3-(4-PYRIDINYL)-1H-INDAZOL-5-YL]-2(R)-THIOMORPHOLINECARBOXAMIDE]
218 | 139 | 214 | O=C(Nc1ccc2[nH]nc(-c3ccncc3)c2c1)C1CN(Cc2cccc(F)c2F)CCO1 (stereo not drawn) [Compound 43, 4-[(2,3-DIFLUOROPHENYL)METHYL]-N-[3-(4-PYRIDINYL)-1H-INDAZOL-5-YL]-2-MORPHOLINECARBOXAMIDE]
173 | 111 | 27 | O=C(Nc1ccc2[nH]nc(-c3ccncc3)c2c1)C1CN(Cc2c(F)cccc2Cl)CCO1 (stereo not drawn) [Compound 37, 4-[(2-CHLORO-6-FLUOROPHENYL)METHYL]-N-[3-(4-PYRIDINYL)-1H-INDAZOL-5-YL]-2-MORPHOLINECARBOXAMIDE]
1840 | 583 | 546 | O=C(Nc1ccc2[nH]nc(-c3ccncc3)c2c1)C1CN(Cc2cscn2)CCO1 (stereo not drawn) [Compound 2, N-[3-(4-PYRIDINYL)-1H-INDAZOL-5-YL]-4-(4-THIAZOLYLMETHYL)-2-MORPHOLINECARBOXAMIDE]
151 | 123 | 141 | O=C(Nc1ccc2[nH]nc(-c3ccncc3)c2c1)C1CN(Cc2cccc(Cl)c2)CCO1 (stereo not drawn) [Compound 29, 4-[(3-CHLOROPHENYL)METHYL]-N-[3-(4-PYRIDINYL)-1H-INDAZOL-5-YL]-2-MORPHOLINECARBOXAMIDE]
275 | 138 | 80 | O=C(Nc1ccc2[nH]nc(-c3ccncc3)c2c1)C1CN(Cc2ccc(F)cc2F)CCO1 (stereo not drawn) [Compound 45, 4-[(2,4-DIFLUOROPHENYL)METHYL]-N-[3-(4-PYRIDINYL)-1H-INDAZOL-5-YL]-2-MORPHOLINECARBOXAMIDE]
